Laboratory results as given in the supplement of paper PMC10307832.

Experiments:
Assay in all cases: relative viability (nuclei count vs DMSO), 5 days (fraction); higher = more cells survive
GSK-J4 + Foretinib = compound: CCOC(=O)CCNc1cc(N2CCc3ccccc3CC2)nc(-c2ccccn2)n1 [GSK-J4] + COc1cc2c(Oc3ccc(NC(=O)C4(C(=O)Nc5ccc(F)cc5)CC4)cc3F)ccnc2cc1OCCCN1CCOCC1 [Foretinib] (partner 0.25 µM)
Summary of the method: (§1)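 Five library-drug doses in √10 steps were combined with a fixed anchor-drug dose, or a single drug was given alone, by pin tool to lung cancer cell lines in 1536-well plates the day after seeding. Nuclei were stained and counted after 5 days. Relative viability is the nuclei count in treated wells over that in vehicle wells, taken as the median of duplicate plates.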

GSK-J4 + Pictilisib = compound: CCOC(=O)CCNc1cc(N2CCc3ccccc3CC2)nc(-c2ccccn2)n1 [GSK-J4] + CS(=O)(=O)N1CCN(Cc2cc3nc(-c4cccc5[nH]ncc45)nc(N4CCOCC4)c3s2)CC1 [Pictilisib] (partner 1 µM)
Summary of the method: as §1

AZ3146 + Tozasertib = compound: CN1CCC(CC1)OC2=CC(=C(C=C2)NC3=NC=C4C(=N3)N(C(=O)N4C)C5CCCC5)OC [AZ3146] + Cc1cc(Nc2cc(N3CCN(C)CC3)nc(Sc3ccc(NC(=O)C4CC4)cc3)n2)n[nH]1 [Tozasertib] (partner 0.1 µM)
Summary of the method: as §1

AZ3146 + Olaparib = compound: CN1CCC(CC1)OC2=CC(=C(C=C2)NC3=NC=C4C(=N3)N(C(=O)N4C)C5CCCC5)OC [AZ3146] + O=C(c1cc(Cc2n[nH]c(=O)c3ccccc23)ccc1F)N1CCN(C(=O)C2CC2)CC1 [Olaparib] (partner 8 µM)
Summary of the method: as §1

Cell Line	relative viability (GSK-J4 + Foretinib; first compound 0.5 µM)	relative viability (GSK-J4 + Foretinib; first compound 1.581 µM)	relative viability (GSK-J4 + Foretinib; first compound 5 µM)	relative viability (GSK-J4 + Foretinib; first compound 15.81 µM)	relative viability (GSK-J4 + Foretinib; first compound 50 µM)	relative viability (GSK-J4 + Pictilisib; first compound 0.5 µM)	relative viability (GSK-J4 + Pictilisib; first compound 1.581 µM)	relative viability (GSK-J4 + Pictilisib; first compound 5 µM)	relative viability (GSK-J4 + Pictilisib; first compound 15.81 µM)	relative viability (GSK-J4 + Pictilisib; first compound 50 µM)	relative viability (AZ3146 + Tozasertib; first compound 0.08 µM)	relative viability (AZ3146 + Tozasertib; first compound 0.253 µM)	relative viability (AZ3146 + Tozasertib; first compound 0.8 µM)	relative viability (AZ3146 + Tozasertib; first compound 2.53 µM)	relative viability (AZ3146 + Tozasertib; first compound 8 µM)	relative viability (AZ3146 + Olaparib; first compound 0.08 µM)	relative viability (AZ3146 + Olaparib; first compound 0.253 µM)	relative viability (AZ3146 + Olaparib; first compound 0.8 µM)	relative viability (AZ3146 + Olaparib; first compound 2.53 µM)	relative viability (AZ3146 + Olaparib; first compound 8 µM)
NCI-H1993	0.789	0.74	0.796	0.556	0.549	0.834	0.845	0.807	0.684	0.725	0.544	0.548	0.6	0.544	0.51	1	1.12	1.12	1.04	1.06
NCI-H322M	1.01	0.884	1.27	0.815	0.712	0.544	0.574	0.7	0.538	0.465	0.455	0.466	0.439	0.495	0.509	0.839	0.839	0.644	0.813	0.729
NCI-H460	0.977	0.81	0.732	1	0.871	0.43	0.457	0.519	0.343	0.217	0.277	0.422	0.118	0.0719	0.0801	0.242	0.45	0.416	0.449	0.352
NCI-H358	0.677	0.684	0.639	0.616	0.631	0.459	0.304	0.377	0.407	0.268	0.0884	0.107	0.105	0.123	0.12	0.555	0.578	0.592	0.583	0.442
NCI-H1395	0.937	0.983	0.865	0.973	0.946	0.578	0.524	0.544	0.573	0.518	0.647	0.832	0.888	0.791	0.522	0.485	0.532		0.568	0.552
LCLC-103H	0.8	0.617	0.789	0.593	0.52	0.704	0.6	0.542	0.691	0.627	0.418	0.523	0.498	0.45	0.409	0.755	0.765	0.778	0.749	0.745
SK-MES-1	0.808	0.757	0.843	0.624	0.866	0.37	0.265	0.394	0.348	0.34	0.891	0.97	0.77	0.276	0.211	0.779	0.759	0.718	0.784	0.654
PC-3 [JPC-3]	0.96	1.01	1.01	0.959	0.762	0.644	0.647	0.757	0.742	0.671	0.829	0.905	0.855	0.877	0.715	1.04		1.01	1.25	1.09
COR-L 105	1.13	0.877	0.834	1.02	0.969	0.519	0.414	0.375	0.402	0.36	0.409	0.335	0.304	0.293	0.309	0.654	0.717	0.503	0.696	0.648
EKVX	0.757	0.221	0.754	0.315	0.908	0.343	0.536	0.619	0.424	0.397	0.314	0.399	0.364	0.378	0.232	0.798	0.828	0.811	1.07	0.798
